According to patent US20240059691A1 (KALVISTA PHARMACEUTICALS LIMITED, priority 2020, published 2024):
pIC50: −log10 of the molar value.

Molecular target: Plasma Kallikrein (Homo sapiens (Human), UniProt P03952)
Experiment: Determination of related protease inhibition: Plasma Kallikrein (fluorogenic substrate at Km)
Format: biochemical
Details: 25° C., read-out: IC50 (human PKal)
Protocol: Determination of Related Protease Inhibition
In vitro inhibition of related proteases was determined using an ([…] assay based on standard literature methods (see e.g. Shori et al., Biochem. Pharmacol., 1992, 43, 1209; Bouckaert et al., European Journal of Medicinal Chemistry 110 (2016) 181). Human serine protease enzymes Plasma Kallikrein, KLK1, FXa, Plasmin, Thrombin and Trypsin were assayed for enzymatic activity using an appropriate fluorogenic substrate at Km concentration, FXIa at fixed substrate concentration of 100 μM, and various concentrations of the test compound. Protease activity was measured by monitoring the accumulation of liberated fluorescence from the substrate over […]. The linear rate of fluorescence increase per minute was expressed as percentage (%) activity. IC50 values were calculated as the concentration of inhibitor giving 50% inhibition of the uninhibited enzyme activity (100%).

Plasma Kallikrein, sequence (P03952 391-638): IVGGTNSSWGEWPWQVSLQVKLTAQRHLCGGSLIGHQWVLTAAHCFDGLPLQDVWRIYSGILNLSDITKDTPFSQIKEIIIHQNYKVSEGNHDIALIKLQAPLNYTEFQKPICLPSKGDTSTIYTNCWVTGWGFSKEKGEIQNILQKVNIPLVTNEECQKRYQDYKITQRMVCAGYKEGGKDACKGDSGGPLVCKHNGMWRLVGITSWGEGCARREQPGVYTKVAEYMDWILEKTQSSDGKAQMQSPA
Plasma Kallikrein, sequence (P03952 20-390 partner): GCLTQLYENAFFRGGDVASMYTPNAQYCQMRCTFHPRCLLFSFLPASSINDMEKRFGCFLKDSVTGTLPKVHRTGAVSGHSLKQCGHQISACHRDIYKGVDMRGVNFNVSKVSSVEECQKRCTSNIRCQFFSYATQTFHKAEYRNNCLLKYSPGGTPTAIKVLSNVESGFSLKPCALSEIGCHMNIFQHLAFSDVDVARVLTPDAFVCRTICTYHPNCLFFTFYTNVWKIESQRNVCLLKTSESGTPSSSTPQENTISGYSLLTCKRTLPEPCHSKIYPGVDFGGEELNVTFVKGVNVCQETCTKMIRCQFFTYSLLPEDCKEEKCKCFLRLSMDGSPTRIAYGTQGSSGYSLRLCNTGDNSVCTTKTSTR

pIC50 | SMILES
< 4.00 | CN1CCC(CNc2ccc(CNc3cc(C(=O)O)c4cnccc4c3)cn2)CC1 [Example 1203, 6-(((6-(((1-methylpiperidin-4-yl)methyl)amino)pyridin-3-yl)methyl)amino)isoquinoline-8-carboxylic acid]
< 4.00 | CN1CCC(CNc2ccc(CNc3cnc4ccccc4c3)cn2)CC1 [Example 1183, N-((6-(((1-methylpiperidin-4-yl)methyl)amino)pyridin-3-yl)methyl)quinolin-3-amine]
< 4.00 | CN1CCC(CNc2ccc(CNc3nc4ccccc4n3C)cn2)CC1 [Example 1192, 1-methyl-N-((6-(((1-methylpiperidin-4-yl)methyl)amino)pyridin-3-yl)methyl)-1H-benzo[d]imidazol-2-amine]
< 4.00 | COc1cccc2sc(NCc3ccc(NCC4CCN(C)CC4)nc3)nc12 [Example 1200, 4-methoxy-N-((6-(((1-methylpiperidin-4-yl)methyl)amino)pyridin-3-yl)methyl)benzo[d]thiazol-2-amine]
< 4.00 | CN1CCC(CNc2ccc(CNc3cnn(-c4cccc(Cl)c4)c3)cn2)CC1 [Example 1116, 5-(((1-(3-chlorophenyl)-1H-pyrazol-4-yl)amino)methyl)-N-((1-methylpiperidin-4-yl)methyl)pyridin-2-amine]
< 4.40 | CNC(=O)c1cc(NCc2ccc(NCC3CCN(C)CC3)nc2)cc2c(Cl)c[nH]c12 [Example 1220, 3-chloro-N-methyl-5-(((6-(((1-methylpiperidin-4-yl)methyl)amino)pyridin-3-yl)methyl)amino)-1H-indole-7-carboxamide]
< 4.00 | COc1ccc2cc(NCc3ccc(NCC4CCN(C)CC4)nc3)ccc2c1 [Example 1180, 5-(((6-methoxynaphthalen-2-yl)amino)methyl)-N-((1-methylpiperidin-4-yl)methyl)pyridin-2-amine]
< 4.00 | CNC(=O)c1cc(NCc2ccc(NCC3CCN(C)CC3)nc2)cc2ccncc12 [Example 1210, N-methyl-6-(((6-(((1-methylpiperidin-4-yl)methyl)amino)pyridin-3-yl)methyl)amino)isoquinoline-8-carboxamide]
< 4.00 | COC(=O)c1cc2c(NCc3ccc(NCC4CCN(C)CC4)nc3)ccnc2[nH]1 [Example 1247, methyl 4-(((6-(((1-methylpiperidin-4-yl)methyl)amino)pyridin-3-yl)methyl)amino)-1H-pyrrolo[2,3-b]pyridine-2-carboxylate]
< 4.00 | Cc1nnc(-c2ccc(NCc3ccnc(OCC4CCN(C)CC4)c3)cc2)o1 [Example 4457, 4-(5-methyl-1,3,4-oxadiazol-2-yl)-N-((2-((1-methylpiperidin-4-yl)methoxy)pyridin-4-yl)methyl)aniline]
< 4.00 | CN1CCC(CNc2ccc(CNc3ccnc4c3ccn4C)cn2)CC1 [Example 1225, 1-methyl-N-((6-(((1-methylpiperidin-4-yl)methyl)amino)pyridin-3-yl)methyl)-1H-pyrrolo[2,3-b]pyridin-4-amine]
< 4.00 | CN1CCC(CNc2ccc(CNc3ncnc4[nH]ccc34)cn2)CC1 [Example 1227, N-((6-(((1-methylpiperidin-4-yl)methyl)amino)pyridin-3-yl)methyl)-7H-pyrrolo[2,3-d]pyrimidin-4-amine]
< 4.00 | COc1ccc2ncc(NCc3ccc(NCC4CCN(C)CC4)nc3)cc2c1 [Example 1177, 6-methoxy-N-((6-(((1-methylpiperidin-4-yl)methyl)amino)pyridin-3-yl)methyl)quinolin-3-amine]
< 4.00 | CN1CCC(CNc2ccc(CNc3cnc4[nH]cc(C#N)c4c3)cn2)CC1 [Example 1212, 5-(((6-(((1-methylpiperidin-4-yl)methyl)amino)pyridin-3-yl)methyl)amino)-1H-pyrrolo[2,3-b]pyridine-3-carbonitrile]
< 4.00 | CN1CCC(CNc2ccc(CNc3cnc4cccnn34)cn2)CC1 [Example 1187, N-((6-(((1-methylpiperidin-4-yl)methyl)amino)pyridin-3-yl)methyl)imidazo[1,2-b]pyridazin-3-amine]
< 4.40 | Nc1ncc(Cl)c2cc(NCc3ccnc(OCC4CCn5c(C(=O)O)cnc5C4)c3)ccc12 (centres unmarked) [Example 4453, 7-(((4-(((1-amino-4-chloroisoquinolin-6-yl)amino)methyl)pyridin-2-yl)oxy)methyl)-5,6,7,8-tetrahydroimidazo[1,2-a]pyridine-3-carboxylic acid]
< 4.00 | CN1CCC(COc2cc(CNc3ccc(N(C)C)nn3)ccn2)CC1 [Example 4458, N3,N3-dimethyl-N6-((2-((1-methylpiperidin-4-yl)methoxy)pyridin-4-yl)methyl)pyridazine-3,6-diamine]
< 4.00 | CN1CCC(CNc2ccc(CNc3ccc4[nH]cnc4c3F)cn2)CC1 [Example 1191, 4-fluoro-N-((6-(((1-methylpiperidin-4-yl)methyl)amino)pyridin-3-yl)methyl)-1H-benzo[d]imidazol-5-amine]
< 4.40 | CN1CCC(CNc2ccc(CNc3ccnc4c3CC(C)(C)N4)cn2)CC1 [Example 1257, 2,2-dimethyl-N-((6-(((1-methylpiperidin-4-yl)methyl)amino)pyridin-3-yl)methyl)-2,3-dihydro-1H-pyrrolo[2,3-b]pyridin-4-amine]
< 4.00 | CN1CCC(CNc2ccc(CNc3cccn4ccnc34)cn2)CC1 [Example 1190, N-((6-(((1-methylpiperidin-4-yl)methyl)amino)pyridin-3-yl)methyl)imidazo[1,2-a]pyridin-8-amine]
< 4.40 | CN1CCC(CNc2ccc(CNc3ccc4cncc(N5CCC(F)(F)C5)c4c3)cn2)CC1 [Example 1260, 4-(3,3-difluoropyrrolidin-1-yl)-N-((6-(((1-methylpiperidin-4-yl)methyl)amino)pyridin-3-yl)methyl)isoquinolin-6-amine]
< 4.00 | CN1CCC(CNc2ccc(CNc3ccc(N(C)C)nn3)cn2)CC1 [Example 1186, N3,N3-dimethyl-N6-((6-(((1-methylpiperidin-4-yl)methyl)amino)pyridin-3-yl)methyl)pyridazine-3,6-diamine]
< 4.00 | Cc1cc2c(NCc3ccc(NCC4CCN(C)CC4)nc3)ccnc2n1C [Example 1216, 1,2-dimethyl-N-((6-(((1-methylpiperidin-4-yl)methyl)amino)pyridin-3-yl)methyl)-1H-pyrrolo[2,3-b]pyridin-4-amine]
< 4.00 | CN1CCC(CNc2ccc(CNc3ccnc4[nH]ncc34)cn2)CC1 [Example 1218, N-((6-(((1-methylpiperidin-4-yl)methyl)amino)pyridin-3-yl)methyl)-1H-pyrazolo[3,4-b]pyridin-4-amine]
< 4.00 | CN1CCC(CNc2ccc(CNc3ccnc4[nH]cc(C#N)c34)cn2)CC1 [Example 1221, 4-(((6-(((1-methylpiperidin-4-yl)methyl)amino)pyridin-3-yl)methyl)amino)-1H-pyrrolo[2,3-b]pyridine-3-carbonitrile]
< 4.40 | CN1CCC(CNc2ccc(CNc3ccnc4[nH]c(C(=O)O)cc34)cn2)CC1 [Example 1253, 4-(((6-(((1-methylpiperidin-4-yl)methyl)amino)pyridin-3-yl)methyl)amino)-1H-pyrrolo [2,3-b]pyridine-2-carboxylic acid]
